Reference: article PMC3654553, “A PPARγ ligand present in Actinidia fruit (Actinidia chrysantha) is identified as dilinolenoyl galactosyl glycerol” (Bioscience Reports, 2013)

How the values were obtained:
[1] = target: T1, PPARγ (peroxisome-proliferator-activated receptor γ) (Homo sapiens, UniProt P37231); assay: competitive fluorescence polarization of HPLC fraction […], dilution series and time course; format: binding
T1 construct: gene PPARG
T1 sequence (P37231 231-505 limits assumed): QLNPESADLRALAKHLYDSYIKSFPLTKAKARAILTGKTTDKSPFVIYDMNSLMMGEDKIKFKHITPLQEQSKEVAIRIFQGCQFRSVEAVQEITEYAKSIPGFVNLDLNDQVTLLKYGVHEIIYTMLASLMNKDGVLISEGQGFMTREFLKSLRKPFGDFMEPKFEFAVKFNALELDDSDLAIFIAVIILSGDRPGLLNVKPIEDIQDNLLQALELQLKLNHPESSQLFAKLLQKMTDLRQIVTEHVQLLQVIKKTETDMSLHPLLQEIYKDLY

[2] = target: T1, PPARγ (peroxisome-proliferator-activated receptor γ); assay: competitive fluorescence polarization (PolarScreen PPARγ green), time course; intact protein ESI-MS shows no covalent adduct; format: binding
[3] = target: T1, PPARγ (peroxisome-proliferator-activated receptor γ)

CCCCC/C=C\C/C=C\CCCCCCCC(=O)O [compound 6, linoleic acid]
competitive fluorescence polarization of HPLC fraction 6, dilution series and ti [1]: α-linolenic acid and linoleic acid bind to PPARγ immediately under the assay conditions used

CC/C=C\C/C=C\C/C=C\CCCCCCCC(=O)OC[C@H](CO[C@@H]1O[C@H](CO)[C@H](O)[C@H](O)[C@H]1O)OC(=O)CCCCCCC/C=C\C/C=C\C/C=C\CC [compound 11, DLGG]
IC50 [2]: 1640 nM

CC/C=C\C/C=C\C/C=C\CCCCCCCC(=O)O [compound 5, α-linolenic acid]
competitive fluorescence polarization of HPLC fraction 5, dilution series [3]: α-linolenic acid and linoleic acid bind to PPARγ immediately under the assay conditions used
